Assay results as given in PubChem BioAssay (NCI).
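96-well plates; 48 h exposure; 5 concentrations. Endpoints by linear interpolation between flanking doses. Not reached: highest tested concentration assigned. TGI is the concentration that stops growth completely.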

Key:
Assay in all cases: NCI-60 cell line screen, 48 h
786-0 renal = tested on: 786-0 renal
A549 NSCLC = tested on: A549 NSCLC
ACHN renal = tested on: ACHN renal
BT-549 breast = tested on: BT-549 breast
CCRF-CEM leukemia = tested on: CCRF-CEM leukemia
DU-145 prostate = tested on: DU-145 prostate
EKVX NSCLC = tested on: EKVX NSCLC
HCC-2998 colon = tested on: HCC-2998 colon
HCT-15 colon = tested on: HCT-15 colon
HL-60(TB) leukemia = tested on: HL-60(TB) leukemia
HOP-92 NSCLC = tested on: HOP-92 NSCLC
HS 578T breast = tested on: HS 578T breast
HT29 colon = tested on: HT29 colon
IGROV1 ovarian = tested on: IGROV1 ovarian
K-562 leukemia = tested on: K-562 leukemia
KM12 colon = tested on: KM12 colon
M14 melanoma = tested on: M14 melanoma
MALME-3M melanoma = tested on: MALME-3M melanoma
MDA-MB-435 = tested on: MDA-MB-435
MDA-N = tested on: MDA-N
MOLT-4 leukemia = tested on: MOLT-4 leukemia
NCI-H226 lung = tested on: NCI-H226 lung
NCI-H23 lung = tested on: NCI-H23 lung
NCI-H460 lung = tested on: NCI-H460 lung
NCI-H522 lung = tested on: NCI-H522 lung
NCI/ADR-RES ovarian = tested on: NCI/ADR-RES ovarian
OVCAR-3 ovarian = tested on: OVCAR-3 ovarian
OVCAR-4 ovarian = tested on: OVCAR-4 ovarian
OVCAR-5 ovarian = tested on: OVCAR-5 ovarian
OVCAR-8 ovarian = tested on: OVCAR-8 ovarian
RXF 393 renal = tested on: RXF 393 renal
SF-268 CNS = tested on: SF-268 CNS
SF-295 CNS = tested on: SF-295 CNS
SF-539 CNS = tested on: SF-539 CNS
SK-MEL-2 melanoma = tested on: SK-MEL-2 melanoma
SK-OV-3 ovarian = tested on: SK-OV-3 ovarian
SN12C renal = tested on: SN12C renal
SNB-19 CNS = tested on: SNB-19 CNS
SNB-75 CNS = tested on: SNB-75 CNS
SR leukemia = tested on: SR leukemia
TK-10 renal = tested on: TK-10 renal
U251 CNS = tested on: U251 CNS
UACC-257 melanoma = tested on: UACC-257 melanoma
UACC-62 melanoma = tested on: UACC-62 melanoma
UO-31 renal = tested on: UO-31 renal

Measured: TGI

CCOC(=O)c1c(-c2ccccc2)c(-c2ccccc2)cn1C
> 10 µM: 786-0 renal | A549 NSCLC | ACHN renal | BT-549 breast | CCRF-CEM leukemia | DU-145 prostate | EKVX NSCLC | HCC-2998 colon | HCT-15 colon | HL-60(TB) leukemia | HOP-92 NSCLC | HS 578T breast | HT29 colon | IGROV1 ovarian | K-562 leukemia | KM12 colon | M14 melanoma | MALME-3M melanoma | MDA-MB-435 | MDA-N | MOLT-4 leukemia | NCI-H226 lung | NCI-H23 lung | NCI-H460 lung | NCI-H522 lung | NCI/ADR-RES ovarian | OVCAR-3 ovarian | OVCAR-4 ovarian | OVCAR-5 ovarian | OVCAR-8 ovarian | RXF 393 renal | SF-268 CNS | SF-295 CNS | SF-539 CNS | SK-MEL-2 melanoma | SK-OV-3 ovarian | SN12C renal | SNB-19 CNS | SNB-75 CNS | SR leukemia | TK-10 renal | U251 CNS | UACC-257 melanoma | UACC-62 melanoma | UO-31 renal
